Data as given in patent US20140271734A1, “BILE ACID RECYCLING INHIBITORS FOR TREATMENT OF BARRETT'S ESOPHAGUS AND GASTROESOPHAGEAL REFLUX DISEASE” (LUMENA PHARMACEUTICALS, INC., priority 2013, published 2014).

Tests used:
[1] = tested on: Cholesterol 7-α hydroxylase; assay: Cholesterol 7-α hydroxylase activity in liver microsomes of treated dogs; assay type: in vivo, beagle dogs; details: 14 Days; for Cholesterol 7a-hydroxylase: n=8
Procedure: (§1) Healthy female and male beagle dogs in the age range of 8 to 10 months were used. The animals were acclimated for at least four weeks before dose administration. Four female and four male dogs per dose group (groups 2-5) were given single daily doses of LUM001 at 1, 4, 12 and 30 mg free form/kg for 13 days. Animals in the control group (group 1) were given the same number of empty capsules as the animals of group 5 to treat all dose groups the same.
(§2) At the end of the study, animals were anesthetized, their livers removed and flash frozen and stored at −80 C. Homogenates of three gram liver tissue samples were prepared in 25 ml homogenization buffer [0.1 M potassium phosphate buffer, pH 7.2, containing 0.1 M sucrose, 50 mM KCl, 50 mM NaF, 5 mM ethylene glycol-bis((3-aminoethyl ether)-N,N,N′,N′-tetraacetic acid (EGTA), 1 mM EDTA, 3 mM dithiothreitol (DTT), and 1 mM phenylmethylsulfonyl fluoride (PMSF)]. A microsomal fraction was prepared by centrifugation at 10,000×g for ten minutes. The supernatant was subjected to centrifugation at 105,000×g for two hours. The microsomal fraction was resuspended in a 0.1 M Na tetrapyrophosphate buffer (pH 10), with 50 mM NaF, and 1 mM EDTA, and subjected to centrifugation for one hour at 105,000×g. The microsomal fraction was resuspended in the homogenization buffer, and assayed for protein content by Coomassie Protein Plus Assay reagent.
Liver microsomes (1 mg) or 7-α-hydroxycholesterol standard solutions were preincubated for five minutes at 37° C. in a rocking water bath with 500 μl 5× buffer, 1.7 ml water, and 50 μl 0.1% (w/v) cholesterol as substrate in excess. The 5× buffer consists of 0.42 M Na2HPO4, 0.25 mM NaF, 0.08 M KH2PO4, 5 mM EDTA and 10 mM DTT. The reaction tubes were incubated at 37° C. in a rocking water bath throughout the remainder of the assay protocol, with cessation of rocking only for the period of time needed to add solutions. After the preincubation period, 250 μl of 10 mM NADPH was added and incubated for 5 minutes to allow enzymatic conversion of the cholesterol substrate to 7-α-hydroxycholesterol by endogenous 7-α-hydroxylase. The reaction was stopped by addition of 75 μl of 20% sodium cholate.
After four minutes, 25 μl of 100 μM 20-α-hydroxycholesterol was added to each tube as an internal recovery standard. The tubes were allowed to rock briefly in the water bath to mix, then 40 μl of 25 U/ml cholesterol oxidase was added and the tubes were incubated for ten minutes to convert 7-α-hydroxycholesterol and 20-α-hydroxycholesterol to their ketone forms, 7-α-hydroxycholesten-3-one and 20-α-hydroxycholesten-3-one. After the enzymatic reactions were completed, the ketone products were isolated by four sequential extractions in 20, 10, 10 and 10 ml petroleum ether, respectively. The collected volumes were evaporated to dryness under a flow of nitrogen gas between each extraction step using a heat block set at 50° C. The final dried samples were resuspended in 125 μl mobile phase solution consisting of 70:30 acetonitrile/methanol for analysis by reversed phase HPLC. Chromatography was performed on a 4.6×250 mm Beckman Ultrosphere ODS reverse phase column in mobile phase solution. The analyte, 7-α-hydroxy-4-cholesten-3-one, is quantified by absorption at 254 nm using the internal standard 20-α-hydroxy-4-cholesten-3-one to control for extraction efficiency.

[2] = tested on: 3-Hydroxy-3-Methylglutaryl Coenzyme A (HMG-CoA) Reductase; assay: HMG-CoA reductase activity in liver microsomes of treated dogs; assay type: in vivo, beagle dogs; details: 14 Days; for HMG-CoA Reductase: n=8
Procedure: as §1, with “Four female and four male dogs per dose group (groups 2-5) were given single daily doses of LUM001 at 1, 4, 12 and 30 mg free form/kg for 13 days.” left out
as §2
Microsomes (200 μg) were preincubated for 15 minutes at 37° C. in a total volume of […] buffer containing 0.1 M potassium phosphate (pH 7.4), 10 mM imidazole, 5 mM DTT, 10 mM EDTA, 3 mM NADP, 12 mM glucose-6-phosphate and 1 unit glucose-6-phosphate dehydrogenase (catalog number G4134, Sigma, St. Louis). The HMG-CoA reductase assay was initiated by the addition of 9 nmoles (0.5 μCi) DL-[3^14C] HMG-CoA (final assay volume was […]. The mixture was incubated for 60 minutes at 37° C. after which the assay was stopped with 25 μl of 6 N HCl. [^3H]Mevalonic acid (0.1 μCi), used as an internal standard to correct for incomplete recovery, was added to the reaction mixture along with 3 mg of unlabeled mevalonic acid lactone. The mixture was then incubated for an additional 30 minutes at 37° C. The [^14C]mevalonate that was formed and converted into mevalonic acid lactone during both incubations was isolated by thin layer chromatography. Each lane was scraped into 3 ml of InstaGel XF (Packard, Meriden, Conn.) and read on a Beckman Scintillator Counter. Reagents unless noted otherwise were obtained from Sigma, St. Louis, Mo. Isotopes were obtained from NEN Life Science Products, Boston, Mass.

[3] = tested on: Hemoglobin A1c (HbA1c); assay: Baseline-corrected percent HbA1c in ZDF rats; assay type: in vivo; details: twice daily oral gavage

Compound	Cholesterol 7a-hydroxylase, % change from vehicle group ([1]; 1 mg/kg/day)	Cholesterol 7a-hydroxylase ([1]; 1 mg/kg/day) [pmol/mg/min]	Cholesterol 7a-hydroxylase, % change from vehicle group ([1]; 4 mg/kg/day)	Cholesterol 7a-hydroxylase ([1]; 4 mg/kg/day) [pmol/mg/min]	Cholesterol 7a-hydroxylase, % change from vehicle group ([1]; 12 mg/kg/day)	Cholesterol 7a-hydroxylase ([1]; 12 mg/kg/day) [pmol/mg/min]	Cholesterol 7a-hydroxylase, % change from vehicle group ([1]; 30 mg/kg/day)	Cholesterol 7a-hydroxylase ([1]; 30 mg/kg/day) [pmol/mg/min]	HMG-CoA Reductase, % change from vehicle group ([2]; 1 mg/kg/day)	HMG-CoA Reductase ([2]; 1 mg/kg/day) [pmol/mg/min]	HMG-CoA Reductase, % change from vehicle group ([2]; 4 mg/kg/day)	HMG-CoA Reductase ([2]; 4 mg/kg/day) [pmol/mg/min]	HMG-CoA Reductase, % change from vehicle group ([2]; 12 mg/kg/day)	HMG-CoA Reductase ([2]; 12 mg/kg/day) [pmol/mg/min]	HMG-CoA Reductase, % change from vehicle group ([2]; 30 mg/kg/day)	HMG-CoA Reductase ([2]; 30 mg/kg/day) [pmol/mg/min]	Baseline-corrected percent HbA1c [3]
CCCCC1(CCCC)CS(=O)(=O)c2ccc(N(C)C)cc2[C@@H](c2ccc(OCc3ccc(C[N+]45CCN(CC4)CC5)cc3)cc2)[C@H]1O [LUM001]	(+28) %	114 ± 18	(+101) %	179 ± 22	(+219) %	284 ± 41	(+378) %	425 ± 58	(+128) %	164 ± 20	(+242) %	246 ± 30	(+449) %	395 ± 46	(+656) %	544 ± 33	–
CCCC[C@]1(CC)CS(=O)(=O)c2ccc(N(C)C)cc2[C@@H](c2cccc(NC(=O)N[C@@H]3O[C@H](COS(=O)(=O)[O-])[C@@H](O)[C@H](OCc4ccccc4)[C@H]3O)c2)[C@H]1O.CCO.O.[K+] [LUM002, potassium((2R,3R,4S,5R,6R)-4-benzyloxy-6-{3-[3-((3S,4R,5R)-3-butyl-7-dimethylamino-3-ethyl-4-hydroxy-1,1-dioxo-2,3,4,5-tetrahydro-1H-benzo[b]thiepin-5-yl)-phenyl]-ureido}-3,5-dihydroxy-tetrahydro-pyran-2-ylmethyl)sulphate ethanolate, hydrate]	–	–	–	–	–	–	–	–	–	–	–	–	–	–	–	–	significant dose-dependent reductions
